Source: ChEMBL document CHEMBL2440076, “New triarylpyrazoles as broad-spectrum anticancer agents: design, synthesis, and biological evaluation” (Eur J Med Chem, 2013)
pIC50: −log10 of the molar value.

Assays:
BT-549 = test: Growth inhibition of human BT549 cells assessed as cell growth at 10 uM after 48 hrs by sulforhodamine B assay; format: functional; settings: BT-549, 48 h, read-out: Activity
[1] = Growth inhibition of human Hs 578T cells assessed as cell growth at 10 uM after 48 hrs by sulforhodamine B assay; format: functional; settings: read-out: Activity
UO-31 = test: Growth inhibition of human UO31 cells assessed as cell growth at 10 uM after 48 hrs by sulforhodamine B assay; format: functional; settings: UO-31, 48 h, read-out: Activity
PC-3 = test: Growth inhibition of human PC3 cells assessed as cell growth at 10 uM after 48 hrs by sulforhodamine B assay; format: functional; settings: PC-3, 48 h, read-out: Activity
SN12C = test: Growth inhibition of human SN12C cells assessed as cell growth at 10 uM after 48 hrs by sulforhodamine B assay; format: functional; settings: read-out: Activity
HT-29 = test: Growth inhibition of human HT-29 cells after 48 hrs by sulforhodamine B assay; format: functional; settings: HT-29, 48 h
[2] = Growth inhibition of human HCC2998 cells after 48 hrs by sulforhodamine B assay; format: functional; settings: HCC 2998, 48 h
NCI-H23 = test: Growth inhibition of human NCI-H23 cells after 48 hrs by sulforhodamine B assay; format: functional; settings: NCI-H23, 48 h
A549 = test: Growth inhibition of human A549/ATCC cells after 48 hrs by sulforhodamine B assay; format: functional; settings: A549, 48 h
RPMI-8226 = test: Growth inhibition of human RPMI8226 cells after 48 hrs by sulforhodamine B assay; format: functional, cell-based; settings: RPMI-8226, 48 h
K562 = test: Growth inhibition of human K562 cells after 48 hrs by sulforhodamine B assay; format: functional; settings: K562, 48 h
RXF 393 = test: Growth inhibition of human RXF393 cells assessed as cell growth at 10 uM after 48 hrs by sulforhodamine B assay; format: functional; settings: RXF 393, 48 h, read-out: Activity
ACHN = test: Growth inhibition of human ACHN cells assessed as cell growth at 10 uM after 48 hrs by sulforhodamine B assay; format: functional; settings: read-out: Activity
786-0 = test: Growth inhibition of human 786-0 cells assessed as cell growth at 10 uM after 48 hrs by sulforhodamine B assay; format: functional; settings: 786-0, 48 h, read-out: Activity
A498 = test: Growth inhibition of human A498 cells assessed as cell growth at 10 uM after 48 hrs by sulforhodamine B assay; format: functional; settings: A498, 48 h, read-out: Activity
SK-OV-3 [3] = test: Growth inhibition of human SKOV3 cells assessed as cell growth at 10 uM after 48 hrs by sulforhodamine B assay; format: functional; settings: SK-OV-3, 48 h, read-out: Activity
OVCAR-3 = test: Growth inhibition of human OVCAR3 cells assessed as cell growth at 10 uM after 48 hrs by sulforhodamine B assay; format: functional; settings: OVCAR-3, 48 h, read-out: Activity
UACC-62 = test: Growth inhibition of human UACC62 cells assessed as cell growth at 10 uM after 48 hrs by sulforhodamine B assay; format: functional; settings: UACC-62, 48 h, read-out: Activity
UACC-257 = test: Growth inhibition of human UACC257 cells assessed as cell growth at 10 uM after 48 hrs by sulforhodamine B assay; format: functional; settings: UACC-257, 48 h, read-out: Activity
SK-MEL-5 [4] = test: Growth inhibition of human SK-MEL-5 cells assessed as cell growth at 10 uM after 48 hrs by sulforhodamine B assay; format: functional; settings: SK-MEL-5, 48 h, read-out: Activity
SK-MEL-2 = test: Growth inhibition of human SK-MEL-2 cells assessed as cell growth at 10 uM after 48 hrs by sulforhodamine B assay; format: functional; settings: SK-MEL-2, 48 h, read-out: Activity
SNB-19 = test: Growth inhibition of human SNB19 cells assessed as cell growth at 10 uM after 48 hrs by sulforhodamine B assay; format: functional; settings: SNB-19, 48 h, read-out: Activity
HCT-116 = test: Growth inhibition of human HCT116 cells assessed as cell growth at 10 uM after 48 hrs by sulforhodamine B assay; format: functional; settings: HCT-116, 48 h, read-out: Activity
MDA-MB-468 = test: Growth inhibition of human MDA-MB-468 cells after 48 hrs by sulforhodamine B assay; format: functional, cell-based; settings: MDA-MB-468, 48 h
T47D = test: Growth inhibition of human T47D cells after 48 hrs by sulforhodamine B assay; format: functional
DU-145 = test: Growth inhibition of human DU145 cells after 48 hrs by sulforhodamine B assay; format: functional; settings: DU-145, 48 h
TK-10 = test: Growth inhibition of human TK10 cells after 48 hrs by sulforhodamine B assay; format: functional; settings: TK-10, 48 h
SK-OV-3 [5] = test: Growth inhibition of human SKOV3 cells after 48 hrs by sulforhodamine B assay; format: functional; settings: SK-OV-3, 48 h
SK-MEL-5 [6] = test: Growth inhibition of human SK-MEL-5 cells after 48 hrs by sulforhodamine B assay; format: functional; settings: SK-MEL-5, 48 h
SK-MEL-28 = test: Growth inhibition of human SK-MEL-28 cells after 48 hrs by sulforhodamine B assay; format: functional; settings: SK-MEL-28, 48 h
SNB-75 = test: Growth inhibition of human SNB75 cells after 48 hrs by sulforhodamine B assay; format: functional; settings: SNB-75, 48 h
U-251 = test: Growth inhibition of human U251 cells after 48 hrs by sulforhodamine B assay; format: functional; settings: U-251, 48 h
SF-539 = test: Growth inhibition of human SF539 cells after 48 hrs by sulforhodamine B assay; format: functional; settings: SF-539, 48 h
HL-60(TB) = test: Growth inhibition of human HL-60(TB) cells assessed as cell growth at 10 uM after 48 hrs by sulforhodamine B assay; format: functional; settings: HL-60, 48 h, read-out: Activity
[7] = read-out: LC50 (the source's name)

Question: What does the source list for `COc1cc(-c2nn(-c3cccc(NC(=O)c4ccccc4)c3)cc2-c2ccncc2)ccc1Cl`?
Answer: growth at 10 µM (BT-549): 1.29%; growth at 10 µM [1]: -1.34%; growth at 10 µM (UO-31): 29.8%; growth at 10 µM (PC-3): 10.5%; growth at 10 µM (SN12C): 28.8%; GI50 (HT-29): 0.392 µM; TGI (HT-29): > 100 µM; CC50 (HT-29; [7]): > 100 µM; GI50 [2]: 2.32 µM; TGI [2]: 22.4 µM; CC50 [2, 7]: > 100 µM; GI50 (NCI-H23): 2.02 µM; LC50 (NCI-H23): > 100 µM; TGI (NCI-H23): > 100 µM; GI50 (A549): 0.585 µM; LC50 (concentration killing 50% of starting cells) (A549): > 100 µM; TGI (A549): > 100 µM; GI50 (RPMI-8226): 0.85 µM; pIC50 (RPMI-8226): 6.07; TGI (RPMI-8226): > 100 µM; CC50 (RPMI-8226; [7]): > 100 µM; GI50 (K562): 0.421 µM; TGI (K562): > 100 µM; CC50 (K562; [7]): > 100 µM; growth at 10 µM (RXF 393): -19.2%; growth at 10 µM (ACHN): 32.3%; growth at 10 µM (786-0): 21.3%; growth at 10 µM (A498): -23.2%; growth at 10 µM (SK-OV-3 [3]): 42.1%; growth at 10 µM (OVCAR-3): 0.02%; growth at 10 µM (UACC-62): 32.5%; growth at 10 µM (UACC-257): 8.64%; growth at 10 µM (SK-MEL-5 [4]): -49.4%; growth at 10 µM (SK-MEL-2): -42.5%; growth at 10 µM (SNB-19): 50%; growth at 10 µM (HCT-116): 8.58%; GI50 (MDA-MB-468): 0.349 µM; pIC50 (MDA-MB-468): 6.46; TGI (MDA-MB-468): 3.42 µM; CC50 (MDA-MB-468; [7]): > 100 µM; GI50 (T47D): 1.9 µM; TGI (T47D): > 100 µM; CC50 (T47D; [7]): > 100 µM; GI50 (DU-145): 0.78 µM; LC50 (DU-145): > 100 µM; TGI (DU-145): 54.7 µM; GI50 (TK-10): 7 µM; TGI (TK-10): > 100 µM; CC50 (TK-10; [7]): > 100 µM; GI50 (SK-OV-3 [5]): 1.07 µM; TGI (SK-OV-3 [5]): > 100 µM; CC50 (SK-OV-3 [5]; [7]): > 100 µM; GI50 (SK-MEL-5 [6]): 0.319 µM; LC50 (concentration killing 50% of cells) (SK-MEL-5 [6]): 7.1 µM; TGI (SK-MEL-5 [6]): 1.38 µM; GI50 (SK-MEL-28): 3.86 µM; LC50 (SK-MEL-28): > 100 µM; TGI (SK-MEL-28): > 100 µM; GI50 (SNB-75): 0.575 µM; LC50 (lethal concentration, 50% net cell kill) (SNB-75): > 100 µM; TGI (SNB-75): > 100 µM; GI50 (U-251): 0.661 µM; LC50 (concentration killing 50% of cells) (U-251): > 100 µM; TGI (U-251): 30.8 µM; GI50 (SF-539): 0.387 µM; LC50 (concentration killing 50% of cells) (SF-539): > 100 µM; TGI (SF-539): 2.88 µM; growth at 10 µM (HL-60(TB)): -18.8%
